Where “and” joins values, the source holds several entries; their conditions need not be identical. Equal values may be shown once.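 Five compound concentrations were applied to cells in 96-well plates for 48 hours; endpoints were derived by simple linear interpolation of the resulting dose-response curve. The concentration for 50% growth inhibition is given as GI50.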 Calls of active or inactive are those of the source. Cut-off read from the data, not from the text of the source: active = GI50 up to about 1.1 µM and inactive = higher.
Experiments:
Assay in all cases: NCI tumour cell line growth inhibition, 48 h
A549 = tested on: A549
HCC 2998 = tested on: HCC 2998
HL-60 = tested on: HL-60
MDA-MB-231 = tested on: MDA-MB-231
MDA-N = tested on: MDA-N
NCI-H226 = tested on: NCI-H226
PC-3 = tested on: PC-3
SF-268 = tested on: SF-268
SK-MEL-5 = tested on: SK-MEL-5
SN12C = tested on: SN12C
SNB-19 = tested on: SNB-19
SNB-75 = tested on: SNB-75
SNB-78 = tested on: SNB-78
U-251 = tested on: U-251
UACC-62 = tested on: UACC-62
COLO 205 = tested on: COLO 205
K562 = tested on: K562
MOLT-4 = tested on: MOLT-4
NCI-H23 = tested on: NCI-H23
MDA-MB-435 = tested on: MDA-MB-435

Row | Compound | GI50 (A549) | GI50 (HCC 2998) | GI50 (HL-60) | GI50 (MDA-MB-231) | GI50 (MDA-N) | GI50 (NCI-H226) | GI50 (PC-3) | GI50 (SF-268) | GI50 (SK-MEL-5) | GI50 (SN12C) | GI50 (SNB-19) | GI50 (SNB-75) | GI50 (SNB-78) | GI50 (U-251) | GI50 (UACC-62) | GI50 (COLO 205) | GI50 (K562) | GI50 (MOLT-4) | GI50 (NCI-H23) | GI50 (MDA-MB-435)
1 | COC1C(O)C(C)OC(OC2C(Oc3cccc4c(O)c5c(=O)oc6ccc(C)c7c(=O)oc(c34)c5c67)OC(C)C3O[C@H](c4ccccc4)OC32)C1O (some centres not stated) | 0.0286 µM (active) | 0.453 µM (active) | 0.098 µM (active) | 845 nM (active) | 0.372 µM (active) | 0.0682 µM (active) | 0.361 µM (active) | 0.135 µM (active) | 0.131 µM (active) | 0.0578 µM (active) | 0.13 µM (active) | 0.583 µM (active) | 0.875 µM (active) | 0.196 µM (active) | 0.14 µM (active) |  |  |  |  | 
2 | COc1ccc2oc3cccc(NCCN(C)C)c3c(=O)c2c1 | 14.2 µM (inactive) | 8.65 µM (inactive) | 9.68 µM (inactive) |  |  | 16.2 µM (inactive) |  | 13.3 µM (inactive) | 16.7 µM (inactive) | 11 µM (inactive) | 14.3 µM (inactive) | 15.3 µM (inactive) | 17.7 µM (inactive) | 12.7 µM (inactive) | 12.7 µM (inactive) | 5.6 µM (inactive) | 9.35 µM (inactive) | 4.01 µM (inactive) | 17.7 µM (inactive) | 
3 | COC(=O)C(C(=O)C(=O)Nc1ccc(Br)cc1)c1nc2ccc(Cl)cc2nc1O (configuration not stated) | > 100 µM (inactive) | > 100 µM (inactive) | > 83.2 µM (inactive) |  |  | 61 µM (inactive) |  | > 100 µM (inactive) | > 100 µM (inactive) | > 100 µM (inactive) | > 100 µM (inactive) | 81.7 µM (inactive) | > 100 µM (inactive) | > 100 µM (inactive) | > 100 µM (inactive) | > 45.2 µM (inactive) | > 67.8 µM (inactive) | 80.7 µM (inactive) | > 100 µM (inactive) | 
4 | O=C(O)/C(Cl)=C(\Cl)C(=O)Nc1ccc(Cl)c(Cl)c1Cl | 18.5 µM (inactive) | 18.9 µM (inactive) | 21.4 µM (inactive) |  |  | 17.5 µM (inactive) |  | 25 µM (inactive) | 29.4 µM (inactive) | 20.9 µM (inactive) | 15.3 µM (inactive) | 18.8 µM (inactive) | 28.4 µM (inactive) | 19.5 µM (inactive) | 13.3 µM (inactive) | 20 µM (inactive) | 28 µM (inactive) | 23.8 µM (inactive) | 18.7 µM (inactive) | 
5 | OCCCCCCOc1ccc(-c2cc(-c3ccccn3)nc(-c3ccccn3)c2)cc1 | 0.23 µM (active) | 0.187 µM (active) | 0.0853 µM (active) |  | 0.526 µM (active) | 0.104 µM (active) | 0.034 µM (active) | 0.0668 µM (active) | 0.243 µM (active) | 0.424 µM (active) | 0.158 µM (active) | 0.637 µM (active) | 0.524 µM (active) | 0.0877 µM (active) | 0.149 µM (active) | 0.372 µM (active) | 0.0728 µM (active) | 0.0274 µM (active) | 0.604 µM (active) | 0.462 µM (active)
6 | Cn1c(=O)nc2n(-c3ccc(Cl)cc3)c3cc(Cl)ccc3nc-2c1=O | 12.9 µM (inactive) | 4.49 µM (inactive) | 2.06 µM (inactive) | 3170 nM (inactive) | 1.48 µM (inactive) | 25.8 µM (inactive) | 9.42 µM (inactive) | 3.08 µM (inactive) | 1.67 µM (inactive) | 6.21 µM (inactive) | 14.3 µM (inactive) | 7.14 µM (inactive) | > 37.9 µM (inactive) | 17.7 µM (inactive) | 1.88 µM (inactive) | 2.11 µM (inactive) | 2.37 µM (inactive) | 3.61 µM (inactive) | 3.33 µM (inactive) | 1.68 µM (inactive)
7 | CC(N)C(=O)OCN1C(=O)C2C3C=CC(C2C1=O)C1C2C(=O)N(COC(=O)C(C)N)C(=O)C2C31 (configuration not stated) | 32.9 µM (inactive) | 43.1 µM (inactive) | 29.8 µM (inactive) |  |  | 39.8 µM (inactive) |  | 21.3 µM (inactive) | 18.1 µM (inactive) | 25.6 µM (inactive) | 52.2 µM (inactive) | 25.6 µM (inactive) | 57 µM (inactive) | 24.5 µM (inactive) | 22.8 µM (inactive) | 19.4 µM (inactive) | 24.8 µM (inactive) | 21.5 µM (inactive) | 22.1 µM (inactive) | 
8 | CCc1nc(N)nc(N)c1-c1ccc(Cl)c(N=[N+]=[N-])c1 |  | 8.22 µM (inactive) |  | 14800 nM (inactive) |  | 28.4 µM (inactive) |  | 6.4 µM (inactive) | 3.74 µM (inactive) | 9.38 µM (inactive) |  | 18.8 µM (inactive) | 18.2 µM (inactive) | 5.38 µM (inactive) |  | 11.9 µM (inactive) | 0.531 µM (active) |  | 4.23 µM (inactive) | 4.57 µM (inactive)
9 | CCN(CC)CCNc1ccc2nnn3c4ccc(O)cc4c(=O)c1c23 | 0.161 µM (active) | 1.52 µM (inactive) | 2.05 µM (inactive) | 36.1 nM (active) | 4.09 µM (inactive) | 3.35 µM (inactive) | 3.09 µM (inactive) | 6.49 µM (inactive) | 1.64 µM (inactive) | 1.64 µM (inactive) | 5.52 µM (inactive) | 2.07 µM (inactive) | 5.89 µM (inactive) | 2.86 µM (inactive) | 8.39 µM (inactive) | 1.84 µM (inactive) | 1.62 µM (inactive) | 0.0407 µM (active) | 5.73 µM (inactive) | 3.56 µM (inactive)
10 | COc1ccc2cc1Oc1ccc(cc1)C[C@H]1c3cc(c(OC)cc3CCN1C)Oc1c(OC)c(OC)cc3c1[C@H](C2)N(C)CC3 [FANCHININ] |  | 1.71 µM (inactive) | 7.8 µM (inactive) and 99.5 µM (inactive) | 5.64 µM (inactive) and 19.8 µM (inactive) |  |  |  | 74.6 µM (inactive) and 8.05 µM (inactive) | 6.1 µM (inactive) and 57.3 µM (inactive) |  | 17.4 µM (inactive) and 6.61 µM (inactive) | 43.2 µM (inactive) and 6.55 µM (inactive) | 9.44 µM (inactive) | 35.7 µM (inactive) and 7.66 µM (inactive) |  |  | 41.2 µM (inactive) and 1.57 µM (inactive) |  | 77.4 µM (inactive) and 8.43 µM (inactive) | 

— ChEMBL document CHEMBL1201862, “PubChem BioAssay data set” (2004)
